Among the test systems are A498; EKVX; HOP-62; HOP-92; HT-29; K562; KM12; LOX IMVI; MDA-MB-231; MOLT-4; OVCAR-5; RXF 393; SF-539; SK-MEL-2; SK-OV-3; SN12C; SR; T47D; UO-31; NCI-H226.
What all share (assay): NCI anticancer screen, dose series, 48 h

Data on eight compounds can be found in ChEMBL document CHEMBL1201862, “PubChem BioAssay data set” (2004).

SMILES strings stand for the structures.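 Tested at 5 concentrations; 48 h exposure; 96-well plates; endpoints linearly interpolated, else capped at highest concentration. GI50 is the concentration that inhibits growth by half.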 Active and inactive are the calls of the source. Rule as the data show it: active = GI50 up to about 1.1 µM and inactive = higher. Bounds are passed on as bounds.

As for `COC1=CC(=O)c2c(c(COP(=O)(N(C)CCBr)N(C)CCBr)cn2C)C1=O`, the GI50 in the assay on A498 was 0.279 µM (active); with EKVX, 0.211 µM (active); in the assay on HOP-62, < 0.0203 µM (active); with HOP-92 it was 0.107 µM (active); in the assay on HT-29, < 0.0219 µM (active); in the assay with K562, 0.0398 µM (active). Further, the GI50 is 0.219 µM (active) in the assay with KM12; 0.194 µM (active) in the assay on LOX IMVI; 0.296 µM (active) with MDA-MB-231; < 0.01 µM (active) with MOLT-4; 0.148 µM (active) with OVCAR-5; 0.0574 µM (active) with RXF 393. For the same compound, the GI50 with SF-539 was < 0.0114 µM (active); in the assay on SK-MEL-2, 0.15 µM (active); in the assay with SK-OV-3 it was 0.121 µM (active); with SN12C, < 0.01 µM (active); in the assay on SR, < 0.01 µM (active); in the assay on T47D, 1.31 µM (inactive). Besides, the GI50 in the assay with UO-31 was < 0.0261 µM (active).

On to `COc1ccc(OC)c(NC2=NCCO2)c1`, for which the GI50 in the assay with A498 is > 100 µM (inactive); in the assay with EKVX, > 100 µM (inactive); with HOP-62, > 100 µM (inactive); with HOP-92 it was < 0.01 µM (active); with HT-29 it was 62.2 µM (inactive); in the assay on K562 it was > 100 µM (inactive). Also, the GI50 in the assay with KM12, in the assay on LOX IMVI, in the assay with MDA-MB-231, with MOLT-4, in the assay on NCI-H226 and in the assay on OVCAR-5 was > 100 µM (inactive) in each case. Further, the GI50 in the assay with RXF 393 is > 100 µM (inactive); in the assay with SF-539, > 100 µM (inactive); in the assay with SK-MEL-2, 18 µM (inactive); with SN12C it was > 100 µM (inactive); in the assay with SR, 66.4 µM (inactive); with T47D it was > 100 µM (inactive). The GI50 in the assay on UO-31 was > 100 µM (inactive).

Turning to `O=C(N/N=C\c1ccccc1)Nc1cccc2ccccc12`, the GI50 in the assay with A498 is 25.4 µM (inactive); in the assay on EKVX, 36.1 µM (inactive); in the assay with HOP-62 it was 18.5 µM (inactive); in the assay with HOP-92 it was 40.5 µM (inactive); with HT-29, 24.3 µM (inactive); in the assay on K562, > 100 µM (inactive). The GI50 with KM12 is 33.4 µM (inactive); in the assay with LOX IMVI it was 44.2 µM (inactive); with MDA-MB-231, 91.4 µM (inactive); in the assay on MOLT-4, > 100 µM (inactive); with NCI-H226 it was 27.1 µM (inactive); with OVCAR-5, 60.4 µM (inactive). The GI50 was 28.1 µM (inactive) in the assay with RXF 393; 50.4 µM (inactive) in the assay with SF-539; 26.7 µM (inactive) with SK-MEL-2; 20.3 µM (inactive) in the assay with SN12C; > 100 µM (inactive) with SR; 2.98 µM (inactive) in the assay with T47D. Also, the GI50 in the assay with UO-31 is 40.5 µM (inactive).

As to `COc1ccc2cc(Oc3ccc(Cl)cc3)c(=O)oc2c1`, the GI50 was 93.5 µM (inactive) in the assay with A498; > 100 µM (inactive) in the assay on EKVX; 50.1 µM (inactive) in the assay with HOP-62; > 100 µM (inactive) in the assay on HOP-92; > 100 µM (inactive) in the assay on HT-29; > 100 µM (inactive) in the assay on K562. For the same compound, the GI50 in the assay on KM12, in the assay on LOX IMVI, in the assay with MDA-MB-231, in the assay on MOLT-4, with NCI-H226 and with OVCAR-5 was > 100 µM (inactive) each time. Moreover, the GI50 with RXF 393, with SF-539, in the assay with SN12C, in the assay with SR, in the assay on T47D and in the assay with UO-31 was > 100 µM (inactive) throughout.

`CO[C@]12CC(=O)C3(C(C[C@H]4CC5CC=C6C[C@@H](OC(C)=O)CC[C@]6(OC(C)=O)C5C[C@@]43C)C1)C1C[C@H]3[C@@H]4CC=C5C[C@@H](OC(C)=O)CC[C@]5(OC(C)=O)[C@H]4CC[C@]3(C)C12` (some centres undefined): the GI50 in the assay on A498 is 27.2 µM (inactive); with EKVX, 21.4 µM (inactive); in the assay on HOP-62, 18.8 µM (inactive); in the assay on HOP-92, 18.7 µM (inactive); in the assay with HT-29, 16.1 µM (inactive); with K562, 8.85 µM (inactive). Besides, the GI50 in the assay on KM12 is 11.4 µM (inactive); in the assay with LOX IMVI, 18.9 µM (inactive); in the assay on MDA-MB-231, 14.8 µM (inactive); in the assay with MOLT-4, 5.58 µM (inactive); in the assay on OVCAR-5, 21.7 µM (inactive); in the assay on SF-539, 19.6 µM (inactive). Further, the GI50 is 18.1 µM (inactive) with SK-MEL-2; 62.1 µM (inactive) with SK-OV-3; 14.6 µM (inactive) in the assay with SN12C; 5.66 µM (inactive) in the assay on SR; 10.9 µM (inactive) in the assay on T47D; 16.1 µM (inactive) in the assay on UO-31.

As to `O=C(Nc1ccccc1)c1cc(S(=O)(=O)n2ccnc2O)c(S)cc1Cl`, the GI50 in the assay on A498, in the assay with EKVX, in the assay with HOP-62, in the assay on HOP-92, in the assay with HT-29 and in the assay on K562 was > 100 µM (inactive) in each case. The GI50 in the assay with KM12, with LOX IMVI, in the assay on MDA-MB-231, with MOLT-4, with NCI-H226 and with OVCAR-5 was > 100 µM (inactive) each time. The GI50 in the assay with RXF 393, with SF-539, in the assay on SK-MEL-2, in the assay with SN12C, in the assay with SR and in the assay on T47D was > 100 µM (inactive) each time. The GI50 with UO-31 is > 100 µM (inactive).

Regarding `CCCCCCCCCCCCCCCCOc1ccc(/C=C/C2=[N+](CCCl)CCO2)cc1`, the GI50 in the assay on A498 is 73.1 µM (inactive); in the assay on EKVX, > 100 µM (inactive); with HOP-62, 87.3 µM (inactive); in the assay on HOP-92 it was > 100 µM (inactive); with HT-29, > 100 µM (inactive); with K562, 77.3 µM (inactive). The GI50 in the assay on KM12 is > 100 µM (inactive); with LOX IMVI, > 100 µM (inactive); in the assay on MDA-MB-231, 20.1 µM (inactive); in the assay with MOLT-4, > 100 µM (inactive); with NCI-H226, > 100 µM (inactive); in the assay on OVCAR-5, > 100 µM (inactive). Besides, the GI50 was > 100 µM (inactive) in the assay with SF-539; > 100 µM (inactive) in the assay on SK-MEL-2; > 100 µM (inactive) with SK-OV-3; > 100 µM (inactive) in the assay with SN12C; 30.1 µM (inactive) in the assay with SR; > 100 µM (inactive) with T47D. Moreover, the GI50 with UO-31 was > 100 µM (inactive).

Turning to `C[N+](C)(CCCCCC[N+](C)(C)CCCN1C(=O)c2cccc3cccc(c23)C1=O)CCCN1C(=O)c2cccc3cccc(c23)C1=O`, the GI50 in the assay on A498, with EKVX, in the assay with HOP-92, with HT-29, in the assay with K562 and with KM12 was > 100 µM (inactive) throughout. The GI50 in the assay on LOX IMVI is > 100 µM (inactive); in the assay on MDA-MB-231, 56.2 µM (inactive); with MOLT-4, > 100 µM (inactive); in the assay on OVCAR-5 it was > 100 µM (inactive); in the assay with RXF 393, > 100 µM (inactive); in the assay on SF-539, > 100 µM (inactive). Further, the GI50 in the assay with SK-MEL-2, in the assay with SK-OV-3, in the assay with SN12C, in the assay with SR, with T47D and in the assay with UO-31 was > 100 µM (inactive) throughout.
